Source: ChEMBL document CHEMBL6096699, “Tröger's Base as a Potential Bridge to Type-I Photosensitizers: Mechanism and Antitumor Applications” (J Med Chem, 2025)
Activity calls are given as the source filed them. The calls are words filed in the database; no cut-off is given here.

Key:
[1] = system: MDA-MB-231; assay: Phototoxicity against human MDA-MB-231 cells assessed as reduction in cell proliferation at 0.156 to 10 uM irradiated with LED light at 1.8 mWcm/2 for 2 hrs and measured after 24 hrs under normoxia condition by MTT assay; type: functional, cell-based; settings: dose 0.156-10 µM, time 26.0 hrs
[2] = Dark toxicity in human HBE cells assessed as cell viability incubated for 24 hrs in dark by MTT assay; type: cell-based
[3] = system: HepG2; assay: Phototoxicity against human HepG2 cells assessed as reduction in cell proliferation at 0.156 to 10 uM irradiated with LED light at 1.8 mWcm/2 for 2 hrs and measured after 24 hrs under normoxia condition by MTT assay; type: functional, cell-based; settings: dose 0.156-10 µM, time 26.0 hrs
[4] = Induction of type-1 ROS generation in tetrahydrofuran at 0.5 uM followed by LED white light irradiation at 1.8 mWcm/2 for 300 sec by DCFH staining based analysis; type: functional
[5] = system: A549; assay: Inhibition of cell migration in human A549 cells at 0.75 uM preincubated for 12 hrs followed by incubation under dark condition and measured after 48 hrs by wound healing assay; type: functional, cell-based; settings: time 60.0 hrs
[6] = system: A549; assay: Induction of intracellular ROS generation in human A549 cells by measuring red fluorescence at 0.4 to 1.2 uM incubated for 24 hrs under dark condition by DHE based fluorescence microscopy analysis; type: functional, cell-based; settings: dose 0.4-1.2 µM
[7] = system: MCF7; assay: Phototoxicity against human MCF7 cells assessed as reduction in cell proliferation at 0.156 to 10 uM irradiated with LED light at 1.8 mWcm/2 for 2 hrs and measured after 24 hrs under normoxia condition by MTT assay; type: functional, cell-based; settings: dose 0.156-10 µM, time 26.0 hrs
[8] = system: A549; assay: Inhibition of cell migration in human A549 cells at 0.75 uM preincubated for 12 hrs followed by LED light irradiation 1.8 mW cm/2 for 2 hrs and measured after 48 hrs by wound healing assay; type: functional, cell-based; settings: time 62.0 hrs
[9] = Induction of type-1 ROS generation in methanol assessed as generation of O2 at 0.5 uM followed by Xe lamp irradiation for 5 mins by DCFH staining based analysis; type: functional
[10] = system: A549; assay: Phototoxicity against human A549 cells assessed as reduction in cell proliferation at 0.156 to 10 uM irradiated with LED light at 1.8 mWcm/2 for 2 hrs and measured after 24 hrs under normoxia condition by MTT assay; type: functional, cell-based; settings: dose 0.156-10 µM, time 26.0 hrs
[11] = Developmental toxicity in wild type AB zebrafish assessed as effect on morphological abnormalities at 1.57 to 50 uM incubated for 72 hrs under dark condition; set-up: species or system Danio rerio; settings: in vivo, dose 1.57-50 µM
[12] = system: A549; assay: Inhibition of cell migration in human A549 cells assessed as appearance of blurred cells at 0.75 uM preincubated for 12 hrs followed by incubation under dark condition and measured after 48 hrs by wound healing assay; type: functional, cell-based; settings: time 60.0 hrs
[13] = Induction of type-1 ROS generation in methanol assessed as generation of OH at 0.5 uM followed by Xe lamp irradiation for 5 mins by DCFH staining based analysis; type: functional
[14] = system: A549; assay: Inhibition of cell migration in human A549 cells assessed as appearance of blurred cells at 0.75 uM preincubated for 12 hrs followed by LED light irradiation 1.8 mW cm/2 for 2 hrs and measured after 48 hrs by wound healing assay; type: functional, cell-based; settings: time 62.0 hrs
[15] = system: A549; assay: Inhibition of cell migration in human A549 cells assessed as appearance of loose cells at 0.75 uM preincubated for 12 hrs followed by incubation under dark condition and measured after 48 hrs by wound healing assay; type: functional, cell-based; settings: time 60.0 hrs
[16] = Developmental toxicity in wild type AB zebrafish assessed as effect on morphological abnormalities at 1.57 to 50 uM incubated for 72 hrs followed by LED light irradiation at 1.8 mW cm/2; set-up: species or system Danio rerio; settings: in vivo, dose 1.57-50 µM
[17] = Photophysical property of the compound assessed as fluorescence quantum yield; type: physicochemical
[18] = system: A549; assay: Inhibition of cell migration in human A549 cells assessed as appearance of loose cells at 0.75 uM preincubated for 12 hrs followed by LED light irradiation 1.8 mW cm/2 for 2 hrs and measured after 48 hrs by wound healing assay; type: functional, cell-based; settings: time 62.0 hrs
[19] = system: A549; assay: Induction of intracellular ROS generation in human A549 cells by measuring red fluorescence at 0.4 to 1.2 uM incubated for 24 hrs in presence of LED light irradiation at 1.8 mW cm/2 by DHE based fluorescence microscopy analysis; type: functional, cell-based; settings: dose 0.4-1.2 µM
[20] = Induction of type-1 ROS generation in tetrahydrofuran assessed as fold increase in DHR123 fluorescence intensity at 0.5 uM followed by LED white light irradiation at 1.8 mWcm/2 for 300 sec by DCFH staining based analysis; type: functional

Fluorescence quantum yield [17]: 0.18
Structure (SMILES): CCN(CC)c1ccc2cc(C(=O)/C=C/c3ccc4c(c3)CN3CN4Cc4cc(C=O)ccc43)c(=O)oc2c1
Activity [1]: Active | Activity [2]: Toxic | Activity [3]: Active | Activity [4]: Active | inhibition [5]: Active | Activity [6]: inactive | Activity [7]: Active | inhibition [8]: Active | Activity [9]: Active | Activity [10]: Active | Activity [11]: Non-toxic | inhibition [12]: Active | Activity [13]: Active | inhibition [14]: Active | inhibition [15]: Active | Activity [16]: Non-toxic | inhibition [18]: Active | Activity [19]: Active | fold change (FC) [20]: 24.1
